Measured values taken from US20020137929A1, “1 - (3-heterocyclylphenyl) isothiourea, -isourea, -guanidine and -amidine herbicidal agents” (Intellectual Property Department, BASF Aktiengesellschaft, priority 1998, published 2002).

Experiments:
ABUTH (Velvetleaf) = experiment: Postemergence herbicidal evaluation; assay type: in vivo, Abutilon theophrasti; details: postemergence
Summary of the method: (§1)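 Herbicidal effect was judged by eye on a 0–9 scale covering stand, vigor, deformity, size and chlorosis, compared with controls, four to five weeks after seedlings about two weeks old were sprayed (40 psi, ~0.0156–0.500 kg/ha).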

AMBEL (Ragweed, Common) [1] = experiment: Postemergence herbicidal evaluation; assay type: in vivo, Ambrosia artemisifolia; details: postemergence
Summary of the method: as §1

[2] = system: CHEAL (Lambsquarters, Common); experiment: Postemergence herbicidal evaluation; assay type: in vivo, Chenopodium album; details: postemergence
Summary of the method: as §1

ECHCG (Barnyardgrass) = experiment: Postemergence herbicidal evaluation; assay type: in vivo, Echinochloa crus-galli; details: postemergence
Summary of the method: as §1

[3] = system: GLXMAW (Soybean, Williams); experiment: Postemergence herbicidal evaluation; assay type: in vivo, Glycine max, (L.) Merr. cv Williams; details: postemergence
Summary of the method: as §1

ORYSAT (Rice, Tebonnet) = experiment: Postemergence herbicidal evaluation; assay type: in vivo, Oryza sativa, (L.) Tebonnet; details: postemergence
Summary of the method: as §1

ZEAMX (Corn, Field) = experiment: Postemergence herbicidal evaluation; assay type: in vivo, Zea mays; details: postemergence
Summary of the method: as §1

AMBEL (Ragweed, Common) [4] = experiment: Preemergence herbicidal evaluation; assay type: in vivo, Ambrosia artemisifolia; details: rated 4-5 weeks after treatment; for AMBEL rating: preemergence, 0-9 scale
Summary of the method: (§2)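 Greenhouse preemergence test: seed-soil mix sown on ~1 inch soil; aqueous acetone spray at equivalent of ~0.0156–0.500 kg/ha; greenhouse-held and watered; scored 0–9 visually at 4–5 weeks.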

CASOB (Sicklepod) = experiment: Preemergence herbicidal evaluation; assay type: in vivo, Cassia obtusifolia; details: rated 4-5 weeks after treatment; for CASOB rating: preemergence, 0-9 scale
Summary of the method: as §2

[5] = system: CHEAL (Lambsquarters, Common); experiment: Preemergence herbicidal evaluation; assay type: in vivo, Chenopodium album; details: rated 4-5 weeks after treatment; for CHEAL rating: preemergence, 0-9 scale
Summary of the method: as §2

GALAP (Galium) = experiment: Preemergence herbicidal evaluation; assay type: in vivo, Galium aparine; details: rated 4-5 weeks after treatment; for GALAP rating: preemergence, 0-9 scale
Summary of the method: as §2

CYPSE (Flatsedge) = experiment: Preemergence weed control under flooded paddy conditions; assay type: in vivo, Cyperus serotinus; details: rated 3-4 weeks after treatment
Summary of the method: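 Seeds or propagules sown in silt loam kept flooded 1.5-3 cm; compounds in 50/50 acetone/water pipetted into flood water at about 0.0313 to 0.500 kg/ha. Greenhouse; visual 0-9 rating versus untreated control 3-4 weeks after treatment.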

[6] = rate 0.0625 kg/ha, rating scale 0-9
[7] = rate 0.1250 kg/ha, rating scale 0-9
[8] = rate 0.2500 kg/ha, rating scale 0-9
[9] = rate 0.0313 kg/ha, rating scale 0-9

C=CCOC(=O)CN1C(=O)CSC1=Nc1cc(-n2c(=O)cc(C(F)(F)F)n(C)c2=O)c(F)cc1Cl [Compound 106, Allyl 2-{{2-chloro-5-[3,6-dihydro-3-methyl-2,6-dioxo-4-(trifluoromethyl)-1(2H)-pyrimidinyl]-4-fluorophenyl}imino}-4-oxo-3-thiazolidineacetate]
herbicidal rating ABUTH (ABUTH (Velvetleaf); rate 0.0158 kg/ha): 9.0 | herbicidal rating ABUTH (ABUTH (Velvetleaf); rate 0.0315 kg/ha): 9.0 | herbicidal rating ABUTH (ABUTH (Velvetleaf); rate 0.0630 kg/ha): 9.0 | herbicidal rating AMBEL (AMBEL (Ragweed, Common) [1]; rate 0.0158 kg/ha): 7.0 | herbicidal rating AMBEL (AMBEL (Ragweed, Common) [1]; rate 0.0315 kg/ha): 7.0 | herbicidal rating AMBEL (AMBEL (Ragweed, Common) [1]; rate 0.0630 kg/ha): 9.0 | herbicidal rating CHEAL ([2]; rate 0.0158 kg/ha): 7.0 | herbicidal rating CHEAL ([2]; rate 0.0315 kg/ha): 7.0 | herbicidal rating CHEAL ([2]; rate 0.0630 kg/ha): 7.0 | herbicidal rating ECHCG (ECHCG (Barnyardgrass); rate 0.0158 kg/ha): 2.0 | herbicidal rating ECHCG (ECHCG (Barnyardgrass); rate 0.0315 kg/ha): 2.0 | herbicidal rating ECHCG (ECHCG (Barnyardgrass); rate 0.0630 kg/ha): 7.0 | herbicidal rating GLXMAW ([3]; rate 0.0158 kg/ha): 4.5 | herbicidal rating GLXMAW ([3]; rate 0.0315 kg/ha): 5.5 | herbicidal rating GLXMAW ([3]; rate 0.0630 kg/ha): 6.0 | herbicidal rating ORYSAT (ORYSAT (Rice, Tebonnet); rate 0.0158 kg/ha): 2.0 | herbicidal rating ORYSAT (ORYSAT (Rice, Tebonnet); rate 0.0315 kg/ha): 2.5 | herbicidal rating ORYSAT (ORYSAT (Rice, Tebonnet); rate 0.0630 kg/ha): 4.0 | herbicidal rating ZEAMX (ZEAMX (Corn, Field); rate 0.0158 kg/ha): 5.0 | herbicidal rating ZEAMX (ZEAMX (Corn, Field); rate 0.0315 kg/ha): 6.5 | herbicidal rating ZEAMX (ZEAMX (Corn, Field); rate 0.0630 kg/ha): 7.0 | AMBEL rating (AMBEL (Ragweed, Common) [4]; 0.0313 kg/ha): 1.5 | AMBEL rating (AMBEL (Ragweed, Common) [4]; 0.0625 kg/ha): 5.0 | AMBEL rating (AMBEL (Ragweed, Common) [4]; 0.1250 kg/ha): 7.0 | AMBEL rating (AMBEL (Ragweed, Common) [4]; 0.2500 kg/ha): 9.0 | Preemergence herbicidal rating AMBEL (AMBEL (Ragweed, Common) [4]; rate 0.0156 kg/ha): 1.5 | CASOB rating (CASOB (Sicklepod); 0.0313 kg/ha): 1.5 | CASOB rating (CASOB (Sicklepod); 0.0625 kg/ha): 2.0 | CASOB rating (CASOB (Sicklepod); 0.1250 kg/ha): 4.0 | CASOB rating (CASOB (Sicklepod); 0.2500 kg/ha): 6.0 | Preemergence herbicidal rating CASOB (CASOB (Sicklepod); rate 0.0156 kg/ha): 0.0 | CHEAL rating ([5]; 0.0313 kg/ha): 9.0 | CHEAL rating ([5]; 0.0625 kg/ha): 9.0 | CHEAL rating ([5]; 0.1250 kg/ha): 9.0 | CHEAL rating ([5]; 0.2500 kg/ha): 9.0 | Preemergence herbicidal rating CHEAL ([5]; rate 0.0156 kg/ha): 8.0 | GALAP rating (GALAP (Galium); 0.0313 kg/ha): 2.0 | GALAP rating (GALAP (Galium); 0.0625 kg/ha): 3.0 | GALAP rating (GALAP (Galium); 0.1250 kg/ha): 6.0 | GALAP rating (GALAP (Galium); 0.2500 kg/ha): 7.0 | Preemergence herbicidal rating GALAP (GALAP (Galium); rate 0.0156 kg/ha): 1.0 | CYPSE herbicidal effect rating (CYPSE (Flatsedge); 0.0313 kg/ha): 0.0 | CYPSE herbicidal effect rating (CYPSE (Flatsedge); 0.0625 kg/ha): 0.0 | CYPSE herbicidal effect rating (CYPSE (Flatsedge); 0.1250 kg/ha): 2.0 | CYPSE herbicidal effect rating (CYPSE (Flatsedge); 0.2500 kg/ha): 6.0

COCCN1C(=O)CSC1=Nc1cc(-n2c(=O)cc(C(F)(F)F)n(C)c2=O)c(F)cc1Cl [Compound 155, 3-{4-Chloro-2-fluoro-5-{[3-(2-methoxyethyl)-4-oxo-2-thiazolidinylidene]amino}phenyl}-1-methyl-6-(trifluoromethyl)-2,4(1H,3H)-pyrimidinedione]
herbicidal rating ABUTH (ABUTH (Velvetleaf); rate 0.0156 kg/ha): 3.0 | herbicidal rating ABUTH (ABUTH (Velvetleaf); rate 0.0313 kg/ha): 9.0 | herbicidal rating ABUTH (ABUTH (Velvetleaf); rate 0.0625 kg/ha): 9.0 | herbicidal rating AMBEL (AMBEL (Ragweed, Common) [1]; rate 0.0156 kg/ha): 0.0 | herbicidal rating AMBEL (AMBEL (Ragweed, Common) [1]; rate 0.0313 kg/ha): 0.0 | herbicidal rating AMBEL (AMBEL (Ragweed, Common) [1]; rate 0.0625 kg/ha): 0.0 | herbicidal rating CHEAL ([2]; rate 0.0156 kg/ha): 0.0 | herbicidal rating CHEAL ([2]; rate 0.0313 kg/ha): 0.0 | herbicidal rating CHEAL ([2]; rate 0.0625 kg/ha): 0.0 | herbicidal rating ECHCG (ECHCG (Barnyardgrass); rate 0.0156 kg/ha): 0.0 | herbicidal rating ECHCG (ECHCG (Barnyardgrass); rate 0.0313 kg/ha): 0.0 | herbicidal rating ECHCG (ECHCG (Barnyardgrass); rate 0.0625 kg/ha): 0.0 | herbicidal rating GLXMAW ([3]; rate 0.0156 kg/ha): 4.0 | herbicidal rating GLXMAW ([3]; rate 0.0313 kg/ha): 5.0 | herbicidal rating GLXMAW ([3]; rate 0.0625 kg/ha): 5.0 | herbicidal rating ORYSAT (ORYSAT (Rice, Tebonnet); rate 0.0156 kg/ha): 0.0 | herbicidal rating ORYSAT (ORYSAT (Rice, Tebonnet); rate 0.0313 kg/ha): 0.0 | herbicidal rating ORYSAT (ORYSAT (Rice, Tebonnet); rate 0.0625 kg/ha): 0.0 | herbicidal rating ZEAMX (ZEAMX (Corn, Field); rate 0.0156 kg/ha): 4.0 | herbicidal rating ZEAMX (ZEAMX (Corn, Field); rate 0.0313 kg/ha): 4.0 | herbicidal rating ZEAMX (ZEAMX (Corn, Field); rate 0.0625 kg/ha): 4.0 | Preemergence herbicidal rating AMBEL (AMBEL (Ragweed, Common) [4]; [6]): 0.0 | Preemergence herbicidal rating AMBEL (AMBEL (Ragweed, Common) [4]; [7]): 2.0 | Preemergence herbicidal rating AMBEL (AMBEL (Ragweed, Common) [4]; [8]): 4.0 | Preemergence herbicidal rating CASOB (CASOB (Sicklepod); [6]): 0.0 | Preemergence herbicidal rating CASOB (CASOB (Sicklepod); [7]): 0.0 | Preemergence herbicidal rating CASOB (CASOB (Sicklepod); [8]): 0.0 | Preemergence herbicidal rating CHEAL [5, 6]: 0.0 | Preemergence herbicidal rating CHEAL [5, 7]: 9.0 | Preemergence herbicidal rating CHEAL [5, 8]: 9.0 | Preemergence herbicidal rating GALAP (GALAP (Galium); [6]): 4.0 | Preemergence herbicidal rating GALAP (GALAP (Galium); [7]): 4.0 | Preemergence herbicidal rating GALAP (GALAP (Galium); [8]): 4.0 | herbicidal effect rating, CYPSE (CYPSE (Flatsedge); 0.0313 kg/ha): 0.0 | herbicidal effect rating, CYPSE (CYPSE (Flatsedge); 0.0625 kg/ha): 0.0 | herbicidal effect rating, CYPSE (CYPSE (Flatsedge); 0.1250 kg/ha): 0.0

Cn1c(C(F)(F)F)cc(=O)n(-c2cc(N=C3SCC(=O)N3Cc3ccccc3Cl)c(Cl)cc2F)c1=O [Compound 143]
herbicidal rating ABUTH (ABUTH (Velvetleaf); rate 0.0156 kg/ha): 9.0 | herbicidal rating ABUTH (ABUTH (Velvetleaf); rate 0.0313 kg/ha): 9.0 | herbicidal rating ABUTH (ABUTH (Velvetleaf); rate 0.0625 kg/ha): 9.0 | herbicidal rating AMBEL (AMBEL (Ragweed, Common) [1]; rate 0.0156 kg/ha): 9.0 | herbicidal rating AMBEL (AMBEL (Ragweed, Common) [1]; rate 0.0313 kg/ha): 9.0 | herbicidal rating AMBEL (AMBEL (Ragweed, Common) [1]; rate 0.0625 kg/ha): 9.0 | herbicidal rating CHEAL ([2]; rate 0.0156 kg/ha): 2.0 | herbicidal rating CHEAL ([2]; rate 0.0313 kg/ha): 6.0 | herbicidal rating CHEAL ([2]; rate 0.0625 kg/ha): 6.0 | herbicidal rating ECHCG (ECHCG (Barnyardgrass); rate 0.0156 kg/ha): 1.0 | herbicidal rating ECHCG (ECHCG (Barnyardgrass); rate 0.0313 kg/ha): 2.0 | herbicidal rating ECHCG (ECHCG (Barnyardgrass); rate 0.0625 kg/ha): 1.0 | herbicidal rating GLXMAW ([3]; rate 0.0156 kg/ha): 4.0 | herbicidal rating GLXMAW ([3]; rate 0.0313 kg/ha): 4.5 | herbicidal rating GLXMAW ([3]; rate 0.0625 kg/ha): 5.0 | herbicidal rating ORYSAT (ORYSAT (Rice, Tebonnet); rate 0.0156 kg/ha): 1.5 | herbicidal rating ORYSAT (ORYSAT (Rice, Tebonnet); rate 0.0313 kg/ha): 1.5 | herbicidal rating ORYSAT (ORYSAT (Rice, Tebonnet); rate 0.0625 kg/ha): 2.0 | herbicidal rating ZEAMX (ZEAMX (Corn, Field); rate 0.0156 kg/ha): 4.0 | herbicidal rating ZEAMX (ZEAMX (Corn, Field); rate 0.0313 kg/ha): 4.0 | herbicidal rating ZEAMX (ZEAMX (Corn, Field); rate 0.0625 kg/ha): 4.0 | Preemergence herbicidal rating AMBEL (AMBEL (Ragweed, Common) [4]; [9]): 0.0 | Preemergence herbicidal rating AMBEL (AMBEL (Ragweed, Common) [4]; [6]): 0.0 | Preemergence herbicidal rating AMBEL (AMBEL (Ragweed, Common) [4]; [7]): 2.0 | Preemergence herbicidal rating AMBEL (AMBEL (Ragweed, Common) [4]; [8]): 3.0 | Preemergence herbicidal rating CASOB (CASOB (Sicklepod); [9]): 0.0 | Preemergence herbicidal rating CASOB (CASOB (Sicklepod); [6]): 0.0 | Preemergence herbicidal rating CASOB (CASOB (Sicklepod); [7]): 0.0 | Preemergence herbicidal rating CASOB (CASOB (Sicklepod); [8]): 1.0 | Preemergence herbicidal rating CHEAL [5, 9]: 7.0 | Preemergence herbicidal rating CHEAL [5, 6]: 7.0 | Preemergence herbicidal rating CHEAL [5, 7]: 9.0 | Preemergence herbicidal rating CHEAL [5, 8]: 9.0 | Preemergence herbicidal rating GALAP (GALAP (Galium); [9]): 0.0 | Preemergence herbicidal rating GALAP (GALAP (Galium); [6]): 0.0 | Preemergence herbicidal rating GALAP (GALAP (Galium); [7]): 1.0 | Preemergence herbicidal rating GALAP (GALAP (Galium); [8]): 0.0 | herbicidal effect rating, CYPSE (CYPSE (Flatsedge); 0.0313 kg/ha): 0.0 | herbicidal effect rating, CYPSE (CYPSE (Flatsedge); 0.0625 kg/ha): 0.0 | herbicidal effect rating, CYPSE (CYPSE (Flatsedge); 0.1250 kg/ha): 0.0 | herbicidal effect rating, CYPSE (CYPSE (Flatsedge); 0.2500 kg/ha): 0.0
